How the values were obtained:
[1] = test system: layer V pyramidal neurons; assay: Responses of layer V pyramidal neurons to hyperpolarizing/depolarizing current pulses (activity-dependent depolarization); assay type: cell-based, Thy1::ChR2 transgenic mice; settings: for cells in which the activity-dependent depolarization and related phenomena were elicited: 5 μM (−) Quinpirole or 10 μM quinpirole, pooled; for effect on PCP-elicited activity-dependent depolarization and afterdepolarization: n=2 cells
Protocol: Electrophysiological recordings monitored the cellular responses of the layer V pyramidal neurons to in vitro light stimulation when under the pharmacological conditions or treatments.
Brain slices isolated from Thy1::ChR2 transgenic mice underwent direct current stimulation and a layer V pyramidal neuron was monitored by electrophysiological recordings for cellular responses to depolarizing current pulses in the absence or presence of 5 μM PCP.

[2] = test system: layer V pyramidal neurons; assay: Responses of layer V pyramidal neurons to light flashes (ChR2 stimulation) in prefrontal slices; assay type: cell-based, Thy1::ChR2 transgenic mice
mice = assay: Social exploration / social behavior in mice; assay type: in vivo; settings: PCP 5 mg/kg alone; FIG. 4C bottom
[3] = test system: layer V pyramidal neurons; assay: Responses of layer V pyramidal neurons to light flashes (ChR2 stimulation) in prefrontal slices; assay type: cell-based, Thy1::ChR2 transgenic mice; settings: for spiking in response to ChR2 stimulation: p<0.001 vs control; for spikes at short interspike intervals: quinpirole, or haloperidol or sulpiride, FIG. 2E, n=4 cells per group
Protocol: We used prefrontal slices from Thy1::ChR2 mice to study network activity evoked by light. Brain slices isolated from Thy1::ChR2 transgenic mice underwent in vitro light stimulation and a layer V pyramidal neuron was monitored by electrophysiological recordings for cellular responses to trains of light flashes (470 nm, 1 msec) in the absence of a D2 agonist (control) or presence a D2 agonist (20 μM quinpirole). The brain slice was subsequently washed to remove the quinpirole and treated with either 0.2-2 μM haloperidol or 5 μM sulpiride, both of which are known D2 antagonists. The spike rate of the layer V pyramidal neurons and the amount of information transmitted by the spike rate was quantified as well as the number of spikes as a function of interspike interval.

[4] = test system: layer V pyramidal neurons; assay: Whole-cell voltage-clamp of ion channel currents mediating the activity-dependent depolarization; assay type: cell-based, mice
From the text: We next sought to identify possible ion channel currents mediating the activity-dependent depolarization, in whole-cell voltage-clamp.

[5] = cells with prominent sag and rebound afterdepolarization
[6] = haloperidol (0.2-2 μM) or sulpiride (5 μM), pooled group
[7] = haloperidol (0.2-2 μM) or sulpiride (5 μM), pooled group, p<0.01 vs control

CCCN1CCC[C@@H]2Cc3n[nH]cc3C[C@H]21 [(−) Quinpirole]
cells in which the activity-dependent depolarization and related phenomena were elicited [1, 5]: 8/10

c1ccc(C2(N3CCCCC3)CCCCC2)cc1 [PCP, phencyclidine]
spiking at short interspike intervals during trains of light pulses ([2]; PCP, Thy1::ChR2 cortical slices): suppressed spiking at short interspike intervals | response to depolarizing current pulses ([1]; PCP 5 μM, FIG. 4A): exhibits an afterdepolarization and persistent firing | cells with activity-dependent depolarization and afterdepolarization outlasting direct stimulation ([1]; PCP 5 μM, all layer V pyramidal neurons recorded): 6/12 | cells with activity-dependent depolarization ([1]; PCP 5 μM, neurons with prominent sag and rebound afterdepolarization): 6/9 | cells with activity-dependent depolarization ([1]; PCP 5 μM, neurons without prominent sag and rebound afterdepolarization): 0/3 | wide action potentials (possible dendritic Ca2+ spikes) ([1]; PCP, FIG. 4A): in some cases found to elicit wide action potentials | social exploration (mice): impairs social exploration

O=C(CCCN1CCC(O)(c2ccc(Cl)cc2)CC1)c1ccc(F)cc1 [haloperidol]
reversal of quinpirole-elicited prolonged depolarization ([2]; 0.2-10 μM haloperidol, washout of quinpirole and simultaneous application): 9/9 | effect on activity-dependent depolarization present in control conditions (before quinpirole) ([1]; haloperidol 0.2-2 μM, n=3): convert bistability into a more modest afterdepolarization, or block the activity dependent depolarization altogether | block of the quinpirole activity-dependent depolarization ([1]; haloperidol 0.2-10 μM): 9/9 | quinpirole-elicited prolonged depolarization after washing out quinpirole ([3]; haloperidol 1 μM, FIG. 2B): abolished | spiking in response to ChR2 stimulation [3, 6]: least | amount of information the spike rate transmitted about the rate of light flashes [3, 7]: lowest | spikes at short interspike intervals [3]: loss of spikes at short interspike intervals

CCCN1CCC[C@@H]2Cc3n[nH]cc3C[C@H]21 [quinpirole]
cells in which the activity-dependent depolarization and related phenomena were elicited [1, 5]: 8/10 | cells exhibiting the activity-dependent depolarization ([1]; 20 μM quinpirole, cells with prominent sag and rebound afterdepolarization): 16/17 | cells with bistability having peaks in power spectra between 20 and 40 Hz ([1]; quinpirole, FIG. 3F): 4/6 | cells exhibiting the activity-dependent depolarization ([1]; quinpirole, cells without prominent sag and rebound afterdepolarization): 0/9 | cells exhibiting the activity-dependent depolarization ([1]; quinpirole, neurons strongly expressing ChR2): 14/18 | current at −30 mV after a series of 1 msec steps to 0 mV ([4]; quinpirole 20 μM): elicited a slowly activating depolarizing current | tail current at −60 mV after a series of 1 msec steps to 0 mV ([4]; quinpirole 20 μM): increased a rapidly inactivating tail current | layer V pyramidal neurons with prolonged depolarization outlasting direct stimulation after high-frequency spiking ([3]; quinpirole 20 μM, all layer V pyramidal neurons recorded): 16/26 | amount of information the spike rate transmitted about the rate of light flashes ([3]; quinpirole 20 μM, compared with control, p<0.05): intermediate | change in responses to trains of light flashes ([3]; quinpirole 20 μM, light flashes 470 nm, 1 msec): marked change in the responses | spike afterhyperpolarization (AHP) ([3]; quinpirole 20 μM, single 1 msec light flash, FIG. 2F): enhanced the spike afterhyperpolarization | spikes at short interspike intervals [3]: loss of spikes at short interspike intervals | spike rate in response to ChR2 stimulation ([3]; quinpirole, p<0.01 vs control): lower spike rates

CCN1CCCC1CNC(=O)c1cc(S(N)(=O)=O)ccc1OC (stereo not shown) [sulpiride]
reversal of quinpirole-elicited prolonged depolarization ([2]; 5 μM sulpiride, simultaneous application with quinpirole): 2/2 | block of the quinpirole activity-dependent depolarization ([1]; sulpiride 5 μM): 2/2 | effect on PCP-elicited activity-dependent depolarization and afterdepolarization ([1]; sulpiride 5 μM, PCP 5 μM): not blocked | effect on PCP-elicited activity-dependent depolarization and afterdepolarization ([1]; sulpiride 5 μM, PCP 5 μM, listed as sulphide): not reversed | effect on quinpirole-elicited currents at −30 mV and −60 mV ([4]; sulpiride 5 μM): blocked | spiking in response to ChR2 stimulation [3, 6]: least | amount of information the spike rate transmitted about the rate of light flashes [3, 7]: lowest | action potential width ([3]; quinpirole + sulpiride 5 μM, FIG. 2F): widened action potentials | spikes at short interspike intervals [3]: loss of spikes at short interspike intervals

From US20160316732A1, “CONTROL AND CHARACTERIZATION OF PSYCHOTIC STATES” (priority 2010, published 2016)
